Tests used:
[1] = tested on: A. baumannii strain 98-37-09; assay: MEC determination: potentiation of minocycline toward serum grown A. baumannii; type: cell-based, Acinetobacter baumannii; conditions: for Log-reduction Colony Forming Units (ml^−1): 1×MEC of compound plus minocycline in serum, versus minocycline alone, plating; for MEC: lowest concentration inhibiting growth in 100% human serum with 0.5 μg ml^−1 minocycline, 48 hr
Procedure: The TimTec ActiProbe-25K diversity-set and Natural Product compound libraries (29,900 compounds total; TimTec, Newark, Del.) were initially screened for putative efflux pump inhibitors by identifying compounds that potentiated the antimicrobial property of a sub-inhibitory concentration of minocycline toward A. baumannii grown in human serum. To do so, A. baumannii strain 98-37-09 was grown for 16 hours in LB medium at 37° C. on a rotary shaker at 225 rpm. Approximately 1×10^5 CFU were then transferred to individual wells of a 96-well round-bottom plate (Corning Costar, Tewksbury, Mass.) containing 100 μL of human serum supplemented with of minocycline (0.5 μg mL^−1; 0.5× minimum inhibitory concentration in serum) and individual members of the Timtec ActiProbe or Natural product library (50 μM). Plates were then incubated at 37° C. for 48 hours. Growth was measured as a function of turbidity. Putative efflux pump inhibitors were identified as compounds that inhibited A. baumannii growth in human serum containing minocycline and were subsequently retested in triplicate, as indicated above. Untreated A. baumannii grown in serum supplemented with minocycline+/−PAβN served as positive and negative controls, respectively. […] Repeat testing in which well constituents were serial diluted and plated on LB agar plates validated that 85 compounds did indeed limit A. baumannii growth in serum supplemented with minocycline, reducing the number of viable colony forming units between 2-6 log cfu in comparison to minocycline alone treated cells.
The MEC was defined as the lowest concentration of test compound required to inhibit the growth of A. baumannii in serum in the presence of 0.5 μg ml^−1 minocycline. Plating confirmed that addition of 1×MEC of each compound elicited ≥1.9-log reduction in A. baumannii cells grown in serum supplemented with minocycline alone (see Table 1).

[2] = tested on: A. baumannii strain 98-37-09; assay: Cellular accumulation of minocycline (HPLC, triple-quadrupole MS); type: cell-based, Acinetobacter baumannii; conditions: human serum with 0.5 μg mL^−1 minocycline plus test compound (0.5×MEC, 1×MEC), 48 hours
Procedure: High pressure liquid chromatography and triple-quadrupole mass spectrometry were used to measure the A. baumannii intracellular levels of minocycline during growth in human serum in the absence and presence of each putative efflux pump inhibitor. […] Cultures were incubated for 48 hours with shaking, at which point an aliquot was removed, serially diluted, and plated to determine the number of viable CFU per mixture. The remainder of the cells were pelleted by centrifugation at 900×g at 4° C., washed twice in PBS, mechanically lysed with a FastPrep cell disrupter (MP Biomedicals, Santa Ana, Calif.) for 20 seconds at 5 m s^−1 and the cellular debris was pelleted via centrifugation at 900×g and 4° C. The amount of minocycline present within the supernatant of ruptured cells was measured. Briefly, doxycycline (0.5 μg mL^−1) was first added to each supernatant to serve as an internal control to account for sample-to-sample preparation variability. The supernatant was then combined with acetonitrile (ACN) at a 1:10 ratio and centrifuged at 16,000×g, at 4° C., to collect minocycline and doxycycline. […] residual liquid was evaporated in a speed vacuum for 2 hours at 8,000×g. To quantify the amount of antibiotics retained, sample materials were suspended in 50% acetonitrile, filtered through a 0.2 μm low protein binding hydrophilic membrane (Millipore, Billerica, Mass.) then separated on Shimadzu high performance liquid chromatography instrument (Fisher Scientific) using a BetaBasic C18 reverse phase column (Thermo Scientific). Separation was carried out with two mobile phase solutions consisting of solution (A) water with 0.1% formic acid and solution (B) 100% ACN. The gradient profile of the chromatography runs was as follows: from 0 to 0.1 min 8% solution B, ramp step wise (37% to 60% solution B) from 0.1 to 6.5 min then holding for one minute before ramping down from 60% to 10% from 7.5 to 8 min. This was followed a hold at 10% solution B for one minute. […] The column was equilibrated in 8% solution B at 40° C. and the flow rate was set to 0.2 mL min^−1. Mass spectrometry analysis of fractions was carried out using a Thermo TSQ Quantum Ultra triple quadrupole mass spectrometer (Fisher Scientific). Data were analyzed using Xcalibur software (Thermo Scientific); the following parameters were used to detect minocycline and the internal control doxycycline: 458.208 m/z→282.971 m/z (collision energy=43, tube lens=119) for minocycline and 445.144 m/z→266.900 m/z (collision energy=39, tube lens=127) for doxycycline. Analysis of the raw data was conducted by using the area under the curve calculations with the Genesis algorithm to determine the concentration in each sample. The difference between the peak intensity and the y intercept of pre-established minocycline and doxycycline standard curves was divided by the slope of the standard curve to quantify the amount of minocycline within each sample. The total concentration of minocycline within each cell was calculated by normalizing to the number of cells within each corresponding culture.

SMILES | Log-reduction Colony Forming Units (ml^−1) [1] | MEC [1] | Minocylcine Per Cell (femtomoles cell^−1) [2]
Cc1cc(O)c(C(C)C)cc1C1(c2cc(C(C)C)c(O)cc2C)OC(=O)c2ccccc21 [ST009495] | 2.23 log | 2 µg/mL | 4.7E−08 femtomoles cell^−1
Nc1nnc(SCC(=O)N2CCCC2)s1 [ST059421] | 6.31 log | 4 µg/mL | 1.27E−07 femtomoles cell^−1
COc1ccc(C=O)cc1Cn1nnc2ccccc21 [ST033235] | 2.21 log | 32 µg/mL | 6.652E−08 femtomoles cell^−1
N=C(N)NS(=O)(=O)c1ccc(/N=C/c2c(O)ccc3ccccc23)cc1 [ST012929] | 4.64 log | 32 µg/mL | 2.74E−08 femtomoles cell^−1
N#CC1=C(N)OC2=C(C(=O)CCC2)C1c1c(Cl)cccc1Cl (stereo not drawn) [ST009850] | 2.47 log | 2 µg/mL | 7.25E−08 femtomoles cell^−1
C/C(=N\c1ccc(S(=O)(=O)Nc2nccs2)cc1)c1ccc(O)cc1O [ST012963] | 3.90 log | 32 µg/mL | 3.23E−08 femtomoles cell^−1
NS(=O)(=O)c1ccc(/N=C/c2ccccc2O)cc1 [ST009655] | 6.67 log | 2 µg/mL | 2.61E−07 femtomoles cell^−1
O=S(=O)(Nc1nccs1)c1ccc(/N=C/c2c(O)ccc3ccccc23)cc1 [ST012934] | 4.42 log | 32 µg/mL | 2.28E−08 femtomoles cell^−1
COc1ccc(-c2c3c([nH]c(=O)c2C#N)CCCCC3)cc1 [ST060355] | 6.94 log | 32 µg/mL | 1.23E−08 femtomoles cell^−1
O=S(=O)(Nc1nccs1)c1ccc(/N=C/c2cc(Cl)cc3c2OCOC3)cc1 [ST012955] | 4.42 log | 32 µg/mL | 1.04E−08 femtomoles cell^−1
CN1CCN(C(=O)CCSc2ccccc2)CC1 [ST058672] | 5.97 log | 4 µg/mL | 3.2E−07 femtomoles cell^−1
NS(=O)(=O)c1ccc(/N=C/c2cc(Br)ccc2O)cc1 [ST010344] | 5.29 log | 32 µg/mL | 2.98E−08 femtomoles cell^−1
Cc1ccc(C2N(Cc3ccccc3)CCN2Cc2ccccc2)s1 [ST008277] | 5.19 log | 4 µg/mL | 4.41E−08 femtomoles cell^−1
CCN(CC)S(=O)(=O)c1ccc(NC(=O)C2CC(=O)N(c3ccc(OC)cc3)C2)cc1 (stereo not drawn) [ST059822] | 6.23 log | 4 µg/mL | 1.36E−07 femtomoles cell^−1
CCOC(=O)C1=C(CN2CCCCC2)NC(=O)NC1c1ccc2c(c1)OCO2 (stereo not drawn) [ST058478] | 6.33 log | 64 µg/mL | 1.52E−07 femtomoles cell^−1
CCCCCCCN1C(=O)/C(=c2\sc3n(c2=O)C(c2ccc(OC(=O)c4ccco4)cc2)C(C(=O)OC)=C(C)N=3)c2ccccc21 (stereo not drawn) [ST029434] | 3.02 log | 64 µg/mL | 1.73E−08 femtomoles cell^−1

SMILES | Log-reduction Colony Forming Units (ml^−1) [1] | MEC [1] | Minocylcine Per Cell (femtomoles cell^−1) [2]
N#CC1=C(N)n2c(s/c(=C\c3ccccc3Cl)c2=O)=C(C#N)C1c1ccccc1Cl (stereo not drawn) [ST006953] | 2.71 log | 4 µg/mL | 4.31E−08 femtomoles cell^−1
CCCCOc1ccc(C(=O)NCCC2=CCCCC2)cc1 [ST060056] | 5.38 log | 4 µg/mL | 4.22E−08 femtomoles cell^−1
Cc1ccc(/C=N/c2ccc(S(N)(=O)=O)cc2)cc1 [ST009696] | 5.67 log | 4 µg/mL | 8.2E−09 femtomoles cell^−1
C/C(Cn1nnc([N+](=O)[O-])n1)=N\NC(=O)CC#N [ST025773] | 8.00 log | 32 µg/mL | 1.04E−07 femtomoles cell^−1
Oc1ccccc1/C=N/c1nccs1 [ST009531] | 2.77 log | 2 µg/mL | 5.88E−09 femtomoles cell^−1
CCOC(=O)C1=C(N)OC2=C(C(=O)CCC2)C1c1sccc1C (stereo not drawn) [ST009847] | 4.97 log | 2 µg/mL | 2.54E−07 femtomoles cell^−1
Cc1cccc(N(CC(=O)NC23CC4CC(CC(C4)C2)C3)S(=O)(=O)c2ccccc2)c1 [ST034012] | 2.00 log | 2 µg/mL | 1.55E−07 femtomoles cell^−1
CC(C)CCOC(=O)C(NS(=O)(=O)c1ccc2c(c1)CCN2S(C)(=O)=O)c1ccccc1 (stereo not drawn) [ST058811] | 6.17 log | 4 µg/mL | 2.48E−07 femtomoles cell^−1
COc1ccccc1C1N(Cc2ccccc2)CCN1Cc1ccccc1 [ST036365] | 3.50 log | 4 µg/mL | 3.59E−08 femtomoles cell^−1
O=S(=O)(Nc1nccs1)c1ccc(/N=C/c2ccc3c(c2)OCO3)cc1 [ST012901] | 2.66 log | 2 µg/mL | 4.16E−09 femtomoles cell^−1
CCOc1cc(C(=O)N2CC(=O)Nc3ccccc32)cc(OCC)c1OCC [ST059010] | 6.11 log | 32 µg/mL | 3.78E−08 femtomoles cell^−1
N#Cc1c(/N=C/c2ccco2)sc2c1CCCC2 [ST033063] | 1.93 log | 2 µg/mL | 5.84E−08 femtomoles cell^−1
O=C(N/N=C/c1cccs1)c1ccncc1 [ST010260] | 2.66 log | 16 µg/mL | 3.27E−08 femtomoles cell^−1
NNC(=O)CSCc1ccc(Cl)cc1 [ST020992] | 7.43 log | 2 µg/mL | 1.53E−07 femtomoles cell^−1
O=[N+]([O-])c1cc(/C=N/c2ccc(S(=O)(=O)NC3NC=CS3)cc2)c2c(c1)COCO2 (stereo not drawn) [ST012941] | 6.23 log | 64 µg/mL | 8.12E−09 femtomoles cell^−1
